Measured values taken from ChEMBL document CHEMBL1201862, “PubChem BioAssay data set” (2004).
Activity calls are given as the source filed them. Cut-off read from the data, not from the text of the source, for most assays here: actives have a measured EC50 and inactives only a lower limit.

Key:
cells = format: functional
[1] = biological target: T1, Zinc finger protein mex-5 (Caenorhabditis elegans, UniProt Q9XUB2); assay: MEX-5/TCR-2 RNA interaction inhibitors, dose response, biochemical, C. elegans, fluorescence polarization (AID 1960)
T1 sequence (Q9XUB2 whole entry): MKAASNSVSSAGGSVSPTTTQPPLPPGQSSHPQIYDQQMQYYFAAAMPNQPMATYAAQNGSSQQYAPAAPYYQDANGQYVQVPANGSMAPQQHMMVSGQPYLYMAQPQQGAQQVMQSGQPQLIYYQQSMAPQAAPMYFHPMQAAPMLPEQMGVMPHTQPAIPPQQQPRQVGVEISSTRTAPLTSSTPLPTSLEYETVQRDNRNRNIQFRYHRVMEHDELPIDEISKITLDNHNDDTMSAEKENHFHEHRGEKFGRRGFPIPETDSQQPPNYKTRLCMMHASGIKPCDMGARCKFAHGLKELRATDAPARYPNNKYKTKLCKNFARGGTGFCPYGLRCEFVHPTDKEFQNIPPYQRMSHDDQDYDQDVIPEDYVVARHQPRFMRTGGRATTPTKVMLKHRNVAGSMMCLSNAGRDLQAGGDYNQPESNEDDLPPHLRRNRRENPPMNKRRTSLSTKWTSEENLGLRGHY

[2] = biological target: T2, RNA-binding protein pos-1 (Caenorhabditis elegans, UniProt G5EF15); assay: inhibitors of POS-1/mex-3 RNA binding, dose response, biochemical, fluorescence polarization (AID 1964);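 note: purified POS-1 fused to maltose binding protein made in E. coli; potency of compounds blocking POS-1 binding to fluorescent RNA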
T2 sequence (G5EF15 whole entry): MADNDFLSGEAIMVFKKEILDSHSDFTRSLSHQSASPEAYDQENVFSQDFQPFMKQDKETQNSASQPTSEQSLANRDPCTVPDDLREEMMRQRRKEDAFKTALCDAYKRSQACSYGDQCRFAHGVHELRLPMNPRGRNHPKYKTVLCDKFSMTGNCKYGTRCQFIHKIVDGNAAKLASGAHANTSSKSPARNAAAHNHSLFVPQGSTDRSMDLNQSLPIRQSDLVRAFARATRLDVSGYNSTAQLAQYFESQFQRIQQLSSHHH

Streptococcus = assay: Group A Streptococcus viability loss, dose response, counter-screen for streptokinase expression inhibitor project, luminescence, BacTiterGlo (AID 1915); format: functional, organism-based;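 note: potency for reduction of bacterial viability or growth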
Streptokinase A = biological target: T3, Streptokinase A (Streptococcus pyogenes serotype M1, UniProt P10520); assay: S. pyogenes streptokinase expression inhibitors, potency, dose response, plasminogen activation absorbance, OD405 (AID 1914); format: functional, Streptococcus pyogenes M1 GAS;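 note: secreted streptokinase activity via plasminogen activation per viability signal from cell pellet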
T3 sequence (P10520 whole entry): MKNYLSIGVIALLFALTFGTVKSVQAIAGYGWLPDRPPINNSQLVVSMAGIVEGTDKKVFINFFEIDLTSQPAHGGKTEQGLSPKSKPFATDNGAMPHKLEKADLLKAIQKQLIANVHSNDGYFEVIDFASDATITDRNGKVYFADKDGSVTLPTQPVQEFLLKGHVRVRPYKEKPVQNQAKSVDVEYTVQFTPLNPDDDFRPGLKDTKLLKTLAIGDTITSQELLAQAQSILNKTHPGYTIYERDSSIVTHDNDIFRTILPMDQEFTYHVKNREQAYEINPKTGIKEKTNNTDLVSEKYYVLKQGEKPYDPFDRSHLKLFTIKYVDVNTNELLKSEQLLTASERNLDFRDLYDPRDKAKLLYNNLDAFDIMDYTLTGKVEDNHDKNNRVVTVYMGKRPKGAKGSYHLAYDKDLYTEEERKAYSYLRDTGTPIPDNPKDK

[3] = system: Streptococcus sp. 'group A'; assay: growth inhibition of control SK(-) GAS strain, dose response, counter-screen for streptokinase expression inhibitor project, luminescence, kanamycin, BacTiterGlo, confirmation (AID 1900); format: functional, organism-based
[4] = cytotoxicity toward NIH3T3 fibroblasts, dose response, counter-screen, cell-based, ATP luminescence, mouse fibroblasts (AID 2010); format: functional;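 note: cells exposed to compound for about 90 hours before reading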
[5] = inhibitors of intracellular T. cruzi replication, confirmation, NIH3T3 host cells, beta-gal luminescence (AID 2044); format: functional, cell-based;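 note: intracellular parasites grown in NIH/3T3 mouse fibroblasts as host cells; luminescent beta-galactosidase reporter signal from transgenic T. cruzi replicating inside host cells; inhibitors lower the luminescence signal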
[6] = biological target: T4, Corticotropin-releasing factor receptor 2/Corticotropin-releasing factor-binding protein (Homo sapiens, UniProt P24387+Q13324); assay: activators of CRF receptor 2 with binding protein – uHTS hits, confirmation (AID 602473); format: functional; settings: read-out: EC50_Mean
T4 sequence (Q13324 whole entry): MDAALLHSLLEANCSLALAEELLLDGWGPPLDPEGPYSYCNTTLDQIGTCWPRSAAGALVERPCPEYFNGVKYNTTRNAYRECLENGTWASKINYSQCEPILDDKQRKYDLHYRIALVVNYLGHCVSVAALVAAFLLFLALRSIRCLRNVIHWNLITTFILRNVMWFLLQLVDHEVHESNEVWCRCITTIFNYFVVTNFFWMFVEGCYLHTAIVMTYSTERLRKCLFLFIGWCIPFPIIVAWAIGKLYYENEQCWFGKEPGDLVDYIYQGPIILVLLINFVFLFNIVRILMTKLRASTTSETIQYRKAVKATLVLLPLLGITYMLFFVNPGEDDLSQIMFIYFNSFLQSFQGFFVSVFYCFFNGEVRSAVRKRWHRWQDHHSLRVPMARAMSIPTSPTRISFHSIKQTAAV
T4 sequence (P24387 whole entry): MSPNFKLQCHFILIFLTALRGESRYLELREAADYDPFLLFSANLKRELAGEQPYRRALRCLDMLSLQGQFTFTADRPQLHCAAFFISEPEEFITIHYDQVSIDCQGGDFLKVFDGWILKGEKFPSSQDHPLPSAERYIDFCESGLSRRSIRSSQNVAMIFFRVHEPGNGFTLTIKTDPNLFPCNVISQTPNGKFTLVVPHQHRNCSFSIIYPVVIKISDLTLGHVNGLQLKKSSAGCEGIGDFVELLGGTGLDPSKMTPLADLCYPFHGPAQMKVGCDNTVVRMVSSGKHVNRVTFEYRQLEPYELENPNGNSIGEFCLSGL

| SMILES | EC50 [1] | EC50 [2] | EC50 (Streptococcus) | EC50 (Streptokinase A) | also measured |
| --- | --- | --- | --- | --- | --- |
| CC1CCCC(/C=N/c2ccc(C(=O)O)c(O)c2)=C1O (stereo unspecified) |  |  |  |  | IC50 (cells): 0.2 µM (active) |
| C=CCOc1cccc(C2C(C(=O)c3ccc(C)o3)=C(O)C(=O)N2c2nnc(C)s2)c1 (stereo unspecified) | 210 µM (active) | > 300 µM (not active) |  |  |  |
| O=C(CN1CCC(n2nnc3cc(F)ccc32)CC1)NCCc1ccccc1 | > 300 µM (not active) | > 300 µM (not active) |  |  |  |
| Brc1cc(-c2ccccc2)nc(-c2ccccc2)n1 |  |  | > 150 µM (not active) | > 150 µM (not active) | EC50 [3]: > 150 µM (not active) |
| COc1ccc(OCCOC(=O)c2cccs2)cc1 |  |  |  |  | IC50 (cells): 23.5 µM (active) |
| CCc1nnc(NS(=O)(=O)c2ccc(NCc3cc(Cl)cc(Cl)c3O)cc2)s1 |  |  | > 150 µM (not active) | 50.8 µM (active) | EC50 [3]: 29.5 µM (active) |
| O=S(=O)(Nc1cccc(-c2ccc(N3CCOCC3)nn2)c1)c1ccc(Cl)c(Cl)c1 |  |  | 116 µM (active) | 23.5 µM (active) | EC50 [3]: 12.6 µM (active) |
| CCOc1cc(/C=C(\C#N)c2nc3ccccc3[nH]2)ccc1OC(C)C(=O)O (stereo unspecified) | 50.5 µM (active) | 78.5 µM (active) |  |  |  |
| Cc1ccc(NC(=O)C(=O)NNC(=O)c2ccccc2C)cc1Cl |  |  |  |  | IC50 (cells): 6.8 µM (active) |
| Cc1ccc(/C=N/NC(=O)c2ccncc2)s1 |  |  |  |  | IC50 (cells): 0.96 µM (active) |
| CCC(C)(C)NC(=O)C(c1cccn1C)N(C(=O)Cn1nnc2ccccc21)c1ccc(OC)cc1 (stereo unspecified) | > 300 µM (not active) | > 300 µM (not active) |  |  |  |
| COc1ccc(C(=O)C2CCCN(C(=O)c3ccc(CSC)o3)C2)cc1F (stereo unspecified) |  |  |  |  | IC50 (cells): 41.5 µM (active) |
| N#Cc1cc(NC2CCCC2)c([N+](=O)[O-])cc1C#N | 41.8 µM (active) | > 300 µM (not active) |  |  |  |
| CN1C(=O)C(=Cc2cc3ccccc3nc2O)C(=O)N(C)C1=O | > 300 µM (not active) | > 300 µM (not active) |  |  |  |
| O=[N+]([O-])c1cc(S(=O)(=O)Nc2cccc(Cl)c2)ccc1N=Nc1c(O)[nH]c2ccccc12 |  |  | 22.2 µM (active) | 27.4 µM (active) | EC50 [4]: > 60 µM (not active); EC50 [3]: 1.69 µM (active); EC50 [5]: 1.31 µM (active) |
| COc1ccc(Nc2nc3ccccc3nc2NS(=O)(=O)c2cccs2)c(OC)c1 | 49.7 µM (inconclusive) | 5.66 µM (active) |  |  |  |
| CCOc1ccc(N2C(=O)NC(=O)/C(=C/Nc3ccc(N(CC)CC)cc3)C2=O)cc1 | 106 µM (active) | 151 µM (active) |  |  | EC50 [6]: 10.4 µM (active) |
| COc1cccc(N2C(=O)NC(=O)/C(=C/c3ccc4c(c3)Cc3ccccc3-4)C2=O)c1 | > 300 µM (not active) | > 300 µM (not active) |  |  |  |
| COCCOC(=O)c1c(C)nc(SCC(=O)Nc2ccc(C)cc2)c(C#N)c1-c1ccco1 |  |  | 53.5 µM (active) | > 150 µM (not active) |  |
| COc1ccccc1-n1c(O)cc(=O)nc1SCC(=O)Nc1ccc(C)cc1 |  |  | 118 µM (active) | > 150 µM (not active) | EC50 [3]: 29.9 µM (active) |
| CCOC(=O)COc1ccc2c(c1)C(=O)CC(C)(c1cccnc1)O2 (stereo unspecified) |  |  |  |  | IC50 (cells): 11.2 µM (active) |
| CC1(C)CC(=O)C2=C(C1)OC(N)=C(C#N)C21C(=O)N(CN2CCOCC2)c2ccccc21 (stereo unspecified) | > 300 µM (not active) | > 300 µM (not active) |  |  |  |
| COc1ccccc1CNC(=O)CSc1nc(=O)n(Cc2ccncc2)c2c1CCC2 |  |  | > 150 µM (not active) | > 150 µM (not active) | EC50 [3]: > 150 µM (not active) |
| CC(=O)Nc1nnc(S(=O)(=O)N2CCN(c3ccc([N+](=O)[O-])cc3Cl)CC2)s1 |  |  | > 150 µM (not active) | > 150 µM (not active) |  |
